From patent publication US20250325687A1, “CONJUGATE COMPRISING TOLL-LIKE RECEPTOR AGONIST” (MABSOFT THERAPEUTICS (SHANGHAI) CO., LTD., priority 2022, published 2025)
Like-named read-outs stand apart in the source and are kept apart here.

Legend:
Format in all cases: cell-based
[1] = biological target: T1, hTLR8 (human Toll-like receptor 8) (Homo sapiens, UniProt Q9NR97); assay: hTLR8 cell assay (HEK-Blue hTLR8 reporter cells); conditions: 24 hours, OD 650 nm
T1 construct: host or cells: HEK-Blue hTLR8 (HEK293-derived reporter cells)
T1 sequence (Q9NR97 27-1041): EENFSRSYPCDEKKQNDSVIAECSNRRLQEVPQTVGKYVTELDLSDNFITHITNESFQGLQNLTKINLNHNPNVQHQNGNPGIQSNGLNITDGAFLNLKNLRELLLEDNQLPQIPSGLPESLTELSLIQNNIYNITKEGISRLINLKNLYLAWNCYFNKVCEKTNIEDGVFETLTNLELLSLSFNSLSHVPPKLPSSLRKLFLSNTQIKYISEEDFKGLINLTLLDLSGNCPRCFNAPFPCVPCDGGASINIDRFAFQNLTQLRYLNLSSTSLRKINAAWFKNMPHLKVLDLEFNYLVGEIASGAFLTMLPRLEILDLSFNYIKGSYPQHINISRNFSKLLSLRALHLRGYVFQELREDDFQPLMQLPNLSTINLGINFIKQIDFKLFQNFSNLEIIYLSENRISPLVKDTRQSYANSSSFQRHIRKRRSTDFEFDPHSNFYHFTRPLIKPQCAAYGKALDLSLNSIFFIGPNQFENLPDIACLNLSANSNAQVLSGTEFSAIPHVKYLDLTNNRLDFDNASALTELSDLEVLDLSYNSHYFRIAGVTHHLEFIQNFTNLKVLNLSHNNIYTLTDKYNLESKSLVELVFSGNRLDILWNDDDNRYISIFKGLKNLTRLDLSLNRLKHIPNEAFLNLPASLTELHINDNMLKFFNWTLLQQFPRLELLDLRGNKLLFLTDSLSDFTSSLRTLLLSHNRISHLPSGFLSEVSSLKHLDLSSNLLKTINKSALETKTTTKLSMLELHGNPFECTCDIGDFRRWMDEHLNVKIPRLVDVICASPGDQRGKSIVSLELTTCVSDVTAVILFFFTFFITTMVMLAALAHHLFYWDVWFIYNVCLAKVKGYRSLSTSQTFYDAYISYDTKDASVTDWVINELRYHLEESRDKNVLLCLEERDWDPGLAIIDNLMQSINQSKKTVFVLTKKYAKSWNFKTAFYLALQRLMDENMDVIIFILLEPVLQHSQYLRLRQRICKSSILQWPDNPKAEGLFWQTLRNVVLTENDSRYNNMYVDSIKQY
In short: (§1)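 HEK-Blue reporter cells in HEK-Blue Detection medium (50000 cells/mL) were exposed to test compounds for 24 hours at 37° C, 5% CO2. Agonism was read from supernatant incubated 1 hour at 37° C with QUANTI-Blue, measured as optical density at 650 nm.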

[2] = biological target: T2, hTLR7 (human Toll-like receptor 7) (Homo sapiens, UniProt Q9NYK1); assay: hTLR7 cell assay (HEK-Blue hTLR7 reporter cells); conditions: 24 hours, OD 650 nm
T2 construct: host or cells: HEK-Blue hTLR7 (HEK293-derived reporter cells)
T2 sequence (Q9NYK1 27-1049): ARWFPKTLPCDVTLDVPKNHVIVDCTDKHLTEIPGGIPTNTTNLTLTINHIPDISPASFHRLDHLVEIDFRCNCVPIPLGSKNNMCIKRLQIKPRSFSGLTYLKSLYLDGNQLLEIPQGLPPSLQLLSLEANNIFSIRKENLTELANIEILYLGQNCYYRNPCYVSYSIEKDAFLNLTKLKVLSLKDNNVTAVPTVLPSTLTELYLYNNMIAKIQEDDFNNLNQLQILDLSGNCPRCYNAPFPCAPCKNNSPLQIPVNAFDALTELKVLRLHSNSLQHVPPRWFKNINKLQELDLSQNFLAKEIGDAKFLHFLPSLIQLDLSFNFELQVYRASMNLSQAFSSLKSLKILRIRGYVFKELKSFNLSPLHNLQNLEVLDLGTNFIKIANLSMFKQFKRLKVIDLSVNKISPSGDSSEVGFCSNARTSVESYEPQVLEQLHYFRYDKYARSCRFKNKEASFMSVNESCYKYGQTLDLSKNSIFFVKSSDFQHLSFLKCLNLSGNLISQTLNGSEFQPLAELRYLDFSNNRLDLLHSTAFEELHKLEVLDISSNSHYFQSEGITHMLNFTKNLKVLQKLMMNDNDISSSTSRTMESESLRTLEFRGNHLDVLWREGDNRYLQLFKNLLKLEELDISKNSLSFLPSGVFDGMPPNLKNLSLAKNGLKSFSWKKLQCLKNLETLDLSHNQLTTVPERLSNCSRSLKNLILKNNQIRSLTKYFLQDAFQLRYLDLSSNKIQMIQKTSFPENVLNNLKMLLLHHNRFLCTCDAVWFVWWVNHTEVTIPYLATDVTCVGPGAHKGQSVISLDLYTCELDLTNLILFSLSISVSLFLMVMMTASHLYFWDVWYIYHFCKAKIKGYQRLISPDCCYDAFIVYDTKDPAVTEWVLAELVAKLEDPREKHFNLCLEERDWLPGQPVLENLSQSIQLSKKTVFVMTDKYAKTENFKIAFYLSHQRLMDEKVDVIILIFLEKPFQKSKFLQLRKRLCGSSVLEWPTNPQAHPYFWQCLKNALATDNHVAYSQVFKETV
In short: as §1

[3] = tested on: human PBMC (human peripheral blood mononuclear cells); assay: PBMC screening assay: induction of TNF-α production; conditions: read-out: EC50 (μM) TNF-α (hPBMC)
Method: The payload compounds of Formula (II′) were assayed to evaluate the induction of TNF-α production in human PBMC (human peripheral blood mononuclear cells).
Human peripheral blood mononuclear cells (PBMC) were obtained from Allcells. […] PBMC were incubated for 24 hours at 37° C. in a 5% CO2 humidified incubator. The following day PBMC plates were centrifuged at 500×g for 5 minutes and the growth media was removed. 200 μL of compound prepared in growth media at a series of diluted concentrations ranging from 2.54 nM to 50 μM were added to PBMC in duplicate and incubated for 24 hours at 37° C. in a 5% CO2 incubator. Prior to supernatant harvest, cells were spun at 500×g for 5 minutes to remove cell debris. TNF-α activity was assessed in the supernatant by ELISA (Elabscience) per the manufacturer's instructions. Optical density at 450 nm (ELISA) was analyzed using a plate reader.

[4] = human PBMC, 24 hours, TNF-α by ELISA, class symbols

EC50 [1]	EC50 [2]	Compound	EC50 ([3]; Homo sapiens, PBMC, 24 h)	EC50 [3, 4]
< 5000 nM	< 1000 nM	CCCCc1nc2c(N)nc3cc(Cc4ccc(CN)s4)ccc3c2n1CC(C)(C)O [Compound 69, 1-(4-amino-7-((5-(aminomethyl)thiophen-2-yl)methyl)-2-butyl-1H-imidazo[4,5-c]quinolin-1-yl)-2-methylpropan-2-ol]		< 0.64 µM
< 5000 nM	1000 to 10000 nM	CCCCc1nc2c(N)nc3cc(Cc4cccc(NC(=O)CN)c4)ccc3c2n1CC(C)(C)O [Compound 65, 2-amino-N-(3-((4-amino-2-butyl-1-(2-hydroxy-2-methylpropyl)-1H-imidazo[4,5-c]quinolin-7-yl)methyl)phenyl)acetamide]		< 0.64 µM
< 5000 nM	< 1000 nM	CC(C)(O)Cn1c(COC2CC2)nc2c(N)nc3cc(Cc4cccc(CN)c4)ccc3c21 [Compound 55, 1-(4-amino-7-(3-(aminomethyl)benzyl)-2-(cyclopropoxymethyl)-1H-imidazo[4,5-c]quinolin-1-yl)-2-methylpropan-2-ol]		< 0.64 µM
< 5000 nM	< 1000 nM	CCCCc1nc2c(N)nc3cc(Cc4cccc(OCCN)c4)ccc3c2n1CC(C)(C)O [Compound 62, 1-(4-amino-7-(3-(2-aminoethoxy)benzyl)-2-butyl-1H-imidazo[4,5-c]quinolin-1-yl)-2-methylpropan-2-ol]		< 0.64 µM
< 5000 nM	< 1000 nM	CC(C)(O)Cn1c(CC2CC2)nc2c(N)nc3cc(Cc4cccc(CN)c4)ccc3c21 [Compound 54, 1-(4-amino-7-(3-(aminomethyl)benzyl)-2-(cyclopropylmethyl)-1H-imidazo[4,5-c]quinolin-1-yl)-2-methylpropan-2-ol]		> 0.64 µM
< 5000 nM	< 1000 nM	CCOCc1nc2c(N)nc3cc(Cc4ccc(CN)s4)ccc3c2n1CC(C)(C)O [Compound 147, 1-(4-amino-7-((5-(aminomethyl)thiophen-2-yl)methyl)-2-(ethoxymethyl)-1H-imidazo[4,5-c]quinolin-1-yl)-2-methylpropan-2-ol]		< 0.64 µM
< 5000 nM	1000 to 10000 nM	CCCC(F)(F)c1nc2c(N)nc3cc(Cc4cccc(CN)c4)ccc3c2n1CC(C)(C)O [Compound 52, 1-(4-amino-7-(3-(aminomethyl)benzyl)-2-(1,1-difluorobutyl)-1H-imidazo[4,5-c]quinolin-1-yl)-2-methylpropan-2-ol]		> 0.64 µM
< 5000 nM	1000 to 10000 nM	CCOCc1nc2c(N)nc3cc(Cc4cccc(CNC(=O)CN)c4)ccc3c2n1CC(C)(C)O [Compound 150, 2-amino-N-(3-((4-amino-2-(ethoxymethyl)-1-(2-hydroxy-2-methylpropyl)-1H-imidazo[4,5-c]quinolin-7-yl)methyl)benzyl)acetamide]		< 0.64 µM
< 5000 nM	< 1000 nM	CCCCc1nc2c(N)nc3cc(Cc4ccc5c(c4)CC(N)CC5)ccc3c2n1CC(C)(C)O (stereo not drawn) [Compound 58, 1-(4-amino-7-((7-amino-5,6,7,8-tetrahydronaphthalen-2-yl)methyl)-2-butyl-1H-imidazo[4,5-c]quinolin-1-yl)-2-methylpropan-2-ol]		< 0.64 µM
< 5000 nM	< 1000 nM	CCCCc1nc2c(N)nc3cc(Cc4ccc(C(C)(C)CN)cc4)ccc3c2n1CC(C)(C)O [Compound 70, 1-(4-amino-7-(4-(1-amino-2-methylpropan-2-yl)benzyl)-2-butyl-1H-imidazo[4,5-c]quinolin-1-yl)-2-methylpropan-2-ol]		< 0.64 µM
< 5000 nM	1000 to 10000 nM	CCC[C@@H](C)c1nc2c(N)nc3cc(Cc4ccccc4)ccc3c2n1CC(C)(C)OCCN [Compound 30, (R)-1-(2-(2-aminoethoxy)-2-methylpropyl)-7-benzyl-2-(pentan-2-yl)-1H-imidazo[4,5-c]quinolin-4-amine]		> 0.64 µM
< 5000 nM	1000 to 10000 nM	CCCCc1nc2c(N)nc3cc(Cc4ccc(CCCN)cc4)ccc3c2n1CC(C)(C)O [Compound 15, 1-(4-amino-7-(4-(3-aminopropyl)benzyl)-2-butyl-1H-imidazo[4,5-c]quinolin-1-yl)-2-methylpropan-2-ol]		< 0.64 µM
< 5000 nM	< 1000 nM	CCCCc1nc2c(N)nc3cc(Cc4cccc(CN)c4)ccc3c2n1CC(C)(C)O [Compound 16, 1-(4-amino-7-(3-(aminomethyl)benzyl)-2-butyl-1H-imidazo[4,5-c]quinolin-1-yl)-2-methylpropan-2-ol]		< 0.64 µM
< 5000 nM	1000 to 10000 nM	CCCCc1nc2c(N)nc3cc(Cc4cccc(CNC(=O)CN)c4)ccc3c2n1CC(C)(C)O [Compound 66, 2-amino-N-(3-((4-amino-2-butyl-1-(2-hydroxy-2-methylpropyl)-1H-imidazo[4,5-c]quinolin-7-yl)methyl)benzyl)acetamide]		> 0.64 µM
< 5000 nM	1000 to 10000 nM	CCOCc1nc2c(N)nc3cc(Cc4ccccc4)ccc3c2n1CC(C)(C)OCCN [Compound 23, 1-(2-(2-aminoethoxy)-2-methylpropyl)-7-benzyl-2-(ethoxymethyl)-1H-imidazo[4,5-c]quinolin-4-amine]		> 0.64 µM

Compound	EC50 [1]	EC50 [2]	EC50 ([3]; Homo sapiens, PBMC, 24 h)	EC50 [3, 4]
CCOCc1nc2c(N)nc3cc(Cc4ccc(CCN)cc4)ccc3c2n1CC(C)(C)O [Compound 2, 1-(4-amino-7-(4-(2-aminoethyl)benzyl)-2-(ethoxymethyl)-1H-imidazo[4,5-c]quinolin-1-yl)-2-methylpropan-2-ol]	5000 to 20000 nM	1000 to 10000 nM	> 0.64 µM	
CCCCc1nc2c(N)nc3cc(Cc4ccc(CCN)cc4)ccc3c2n1CC(C)(C)O [Compound 19, 1-(4-amino-7-(4-(2-aminoethyl)benzyl)-2-butyl-1H-imidazo[4,5-c]quinolin-1-yl)-2-methylpropan-2-ol]	< 5000 nM	< 1000 nM	< 0.64 µM	
